This is an account of results in patent US10583387B2, “Guanidine compounds for carbon dioxide capture” (UT-Battelle, LLC, priority 2017, dated 2020).

For orientation: pKa means the pH at which an ionisable group is half protonated. By solubility is commonly meant the dissolved amount per volume that the medium holds.

For data set [1] the following is noted: cited from earlier work.
Data set [2] in a line: CO2 release and PyBIG regeneration by solar oven heating. Type of data set: physicochemical. Here is the method: The CO2 release from the PyBIGH2(CO3)(H2O)4 crystals was conducted by solar heating with a solar oven. The oven consists of a vacuum-insulated borosilicate tube placed in the focal point of two adjustable parabolic reflectors. The temperature inside the tube was monitored with a thermocouple. The PyBIGH2(CO3)(H2O)4 samples 36.4-45.0 mg, 0.095-0.118 mmol) were loaded in 1 mL glass vials, which were placed inside the oven tube. The solar oven was then placed in the full sun and oriented to capture the maximum amount of sunlight. The temperature was ramped to the targeted values of 120° C., 130° C., 140° C., 150° C., or 160° C. as fast as possible (typically within 3 to 10 minutes), then held within ±2° C. by intermittently moving the oven out of the sun, or/and closing the reflectors. The samples were subsequently removed from the tube, allowed to cool to room temperature, and weighed to determine their mass loss. The resulting yellow solids were analyzed by FTIR to confirm the disappearance of the carbonate and water peaks. The solar regeneration experiments were repeated three times at each temperature, and the average values and standard deviations calculated.
However, considering that this transformation is highly endothermic, the possibility of using concentrated solar power to render the process more energy sustainable was explored. For the initial small-scale proof of concept, a solar oven was used to heat solid PyBIGH2(CO3)(H2O)4 samples (˜38 mg, 0.1 mmol) at five different temperatures ranging between 120 and 160° C. FTIR analyses corroborated the release of CO2, most evidently noticeable by the disappearance of the strong peak at 1361 cm^−1 corresponding to the stretching mode of the carbonate anion.

The conditions of data set [3]: cited from earlier work; for reaction rate of CO2 with sorbent: 25° C.
A short description of data set [4]: Thermogravimetric analysis (TGA-MS) and oven heating of the carbonate crystals. Type of data set: physicochemical.
Text: Thermogravimetric analysis coupled with mass spectrometry (TGA-MS) provided a more quantitative picture of the decomposition process.
A short description of data set [5]: Reaction enthalpies of elementary steps in DAC with PyBIG (van't Hoff analyses). Type of data set: physicochemical. The following applies: for ΔH, PyBIGH2(CO3)(H2O)4 crystallization: equation 6. The source says: It is instructive to compare the thermodynamics of the CO2 absorption by PyBIG with those of other sorbents used in DAC. For example, amine sorbents have absorption enthalpies in the range of 60-80 kJ/mol. […] Thus, the actual CO2 ‘binding’ by PyBIG, corresponding to equations 3-5 combined, has an enthalpy of −109.8 kJ/mol. This is essentially the same as the enthalpy of CO2 absorption by aqueous NaOH. The crystallization step (equation 6) then adds −47 kJ/mol, to make the overall absorption process a combined −156 kJ/mol, which is about twice as exothermic compared to the CO2 absorption by a typical amine sorbent. However, dissolution of PyBIG (equation 1), which is endothermic (+42.5 kJ/mol) and essentially offsets the exothermic crystallization in step 6, and proton transfer from water to the guanidine groups (equation 2), which is also endothermic (+43.6), brings the overall enthalpy for CO2 capture by PyBIG (equation 7) to −70.7 kJ/mol.

Data set [6] can be described thus: Differential scanning calorimetry (DSC), enthalpy of CO2 release. The class given is physicochemical. From the text: In order to determine the enthalpy of CO2 release from PyBIGH2(CO3)(H2O)4, differential scanning calorimetry (DSC) was employed. DSC is a common technique used in thermal analysis of solids. […] Unfortunately, the extensive overlap between the peaks prevented a determination of the heats associated with each thermal event. Instead, all the peaks were integrated together to obtain the overall enthalpy of desorption for PyBIGH2(CO3)(H2O)4, which amounts to 223±4 kJ/mol. While the overall reaction is highly endothermic, it should be taken into account that, for each CO2 molecule released from PyBIGH2(CO3)(H2O)4, there are four molecules of hydration that are desorbed (plus a fifth water molecule that is a bi-product of the carbonate decomposition).
In order to determine the fraction of the reaction enthalpy corresponding to the CO2 release from the carbonate, anhydrous PyBIGH2(CO3) was prepared by overnight vacuum pumping of PyBIGH2(CO3)(H2O)4 at 30° C. […] The difference between the measured endotherms of PyBIGH2(CO3)(H2O)4 and PyBIGH2(CO3), of 148 kJ/mol, can be assigned to dehydration of the carbonate salt. This corresponds to an average of 37 kJ/mol per water of hydration, which is close to the enthalpy of vaporization for liquid water, of 40.65 kJ/mol. While a large fraction of the heat required to release the CO2 is spent on water evaporation, part of the waste heat could be recovered by process modifications that involve water condensation steps in which the resulting heat is collected and re-used via heat exchangers. Alternatively, vacuum-drying operations that typically require less energy than heat drying can be employed for dehydration of PyBIGH2(CO3)(H2O)4 prior to CO2 release. The use of renewable sources of energy, such as concentrated solar power, is also herein being considered to make the overall DAC process energy sustainable.
(In general: Differential scanning calorimetry records heat flow against a reference as temperature is scanned.)

Data set [7] is described as follows: pKa by potentiometric titration. The following applies: 25° C., read-out: pKa of the two guanidinium groups. The class given is physicochemical.
Data set [8] is described as follows: Accelerated aging of PyBIG (thermal stability). Type of data set: physicochemical.
Data set [9] can be described thus: Equilibrium constant for the amino acid regeneration reaction (equation 11). The class given is physicochemical. To be noted: glycine sorbent, ideal conditions. The source says:
In addition to the enthalpies of CO2 absorption and release, another important thermodynamic parameter is the equilibrium constant for the amino acid regeneration reaction (equation 10), which defines the efficiency limit for sorbent regeneration.

A short description of data set [10]: physchem. To be noted: pH 10, water, thermodynamic from solid.
Data set [11] can be described thus: Aqueous solubility and solubility product (variable-temperature solubility measurements). The following applies: saturated solution (~10 mM).
The conditions of data set [12]: liquid; cited from earlier work.

In brackets after ≈: the same amount, converted by molar mass. Several values for one entry are separate records, joined by “and”; a condition that tells them apart may be missing. Identical values can stand only once.

With `O=C=O` [CO2, carbon dioxide], in data set [1] (equation 3), the “ΔH, CO2 dissolution” value is -4.64 kcal/mol.
Turning to `O=C(O)O` [CO3^2−, carbonate], the “ΔH, CO3^2− formation” value in data set [1] (equation 5) is -9.66 kcal/mol.
As for `O=C([O-])[O-].[Ca+2]` [CaCO3, reference compound], in data set [2] (two hours at 160° C.), the “CO2 release on solar heating” value was “no CO2 release was observed”.
Take `O=C(O)O` [HCO3^−, bicarbonate]: the “ΔH, HCO3^− formation” value in data set [1] (equation 4) was -12 kcal/mol.
Take `[Na+].[OH-]` [NaOH]: in data set [3] (1 M solution), the “flux of CO2 absorbed from air” value is recorded as “around 30 μmol/m^2/s”.
As for `N=C(N)NN=Cc1cccc(C=NNC(=N)N)n1.O.O.O.O.O=C(O)O` [PyBIGH2(CO3)(H2O)4], in [4] (80° C., after 300 minutes), the “decomposition completion, isothermal TGA” value is given as 77%. The “time to complete loss of carbon dioxide and water, isothermal TGA” value in data set [4] (100° C.) was determined as 150 min; in data set [4] (120° C.), 60 min. In addition, the “mass loss, temperature-ramped TGA” value in data set [4] (between 65 and 140° C.) is 35.2%. Further, in data set [4] (one hour at 120° C.), the “mass loss of crystals heated in the oven” value came out at 34.3%. Further, in [5], the “ΔH, PyBIGH2(CO3)(H2O)4 crystallization” value is -11.2 kcal/mol. Further, the “average enthalpy per water of hydration” value in [6] stood at 8.84 kcal/mol. Besides, the “overall enthalpy of desorption (DSC)” value in [6] (all peaks between 80 and 140° C. integrated) came to 53.3 ± 0.96 kcal/mol. Besides, in data set [6] (difference between endotherms of hydrated and anhydrous salt), the “enthalpy of dehydration of the carbonate salt” value amounted to 35.4 kcal/mol. For the same molecule, the Weight loss was found to be 32.3 ± 0.8% in data set [2] (120 ° C., 30 min); 32.3 ± 0.8% in [2] (130 ° C., 15 min); 33.2 ± 0.8% in [2] (140 ° C., 10 min); 32.5 ± 0.8% in data set [2] (150 ° C., 5 min); 33.8 ± 0.3% in [2] (160 ° C., 2 min).
Consider `N=C(N)NN=Cc1cccc(C=NNC(=N)N)n1.O=C(O)O` [PyBIGH2(CO3)], for which, in data set [6] (anhydrous carbonate salt), the “enthalpy of the CO2 release (DSC)” value was 17.9 ± 1.4 kcal/mol.
Consider `N=C(N)N/N=C/c1cccc(/C=N/NC(=N)N)n1` [PyBIG], for which the “no decomposition up to (TGA-MS)” value in data set [4] (regenerated compound) stood at 190 °C. Further, the pKa in data set [7] came out at 7.6. For the same molecule, in [5] (equation 1), the “ΔH, PyBIG dissolution” value was 10.2 kcal/mol. Also, the “ΔH, PyBIG protonation” value in data set [5] (equation 2, sum of both protonation enthalpies plus twice water deprotonation) was 43.6 kJ/mol and 43.6^a kJ/mol. Further, the “ΔH, PyBIGH2(CO3)(H2O)4 crystallization” value in data set [5] was -11.2 kcal/mol. Also, the “enthalpy of CO2 'binding'” value in data set [5] (equations 3-5 combined) is -26.24 kcal/mol. The “enthalpy of absorption incl. crystallization step” value in data set [5] (equations 3-6 combined) is -37.3 kcal/mol. Further, the “initial weight loss corresponding to CO2 and H2O loss” value in data set [8] (120° C. in open air) is recorded as 35.3%. In addition, in [8] (120° C. in open air for a week, after initial loss), the “weight loss during accelerated aging (TGA)” value turned out to be 0.5%. Further, the “log Kreg” value in data set [9] came to 3.5. This molecule returned a solubility in data set [10] of approximately 10 mM (≈ 2470 µg/mL). Also, the “pH of saturated solution” value in [11] is listed as “about 10”.
For `NCC(=O)O` [glycine], the “reaction rate of CO2 with sorbent” value in [3] is listed as approximately 13.9 kM/s.
For the molecule `CNCC(=O)O` [sarcosine], the “reaction rate of CO2 with sorbent” value in data set [3] is given as “ca. 18.6 kM/s”.
For `O` [water], in data set [12], the enthalpy of vaporization is 9.716 kcal/mol.
